Assay results reported in patent US10285938B2 (ISSAR Pharmaceutical, priority 2015, dated 2019).
Like-named read-outs stand apart in the source and are kept apart here. No end group written: not given here.

Legend:
[1] = system: burn wound healing; set-up: species or system human; conditions: in vivo
Text: None of the XYLENTRA® treated volunteers developed any adverse reaction.

[2] = subacute toxicity study in rats; type: in vivo
[3] = human, in vivo
Text: There was an absence of any symptoms or signs of toxicity at the evaluation site and considered a measure of primary efficacy/tolerability was established in this study. […] Treatment Groups (2% and 4%) were similar in efficacy/tolerability and safety parameters studied.

[4] = system: partial thickness burns
Text: Patients of either gender with partial thickness burns referred to a tertiary referral center Number of Subjects Enrolled: 160
Multi-center, double-blind, randomized parallel design study in 200 patients of partial thickness burns • 2. […] Participants satisfying the inclusion criteria were hospitalized for the study duration and were randomized in a 1:1 ratio to receive either SSD 1% or XYLENTRA®. Randomization was done specific for each center. Allocation concealment was maintained. The drugs were topically administered once daily for 4 weeks or until complete wound healing, whichever was earlier. The patients were discharged only after complete healing of wound and recovery from other secondary effects of burns. A follow up was done on the 3rd month to record the frequency of scars^10, keloids or contracture formation. • b. […] Either sex • 2. Age 18-60 years • 3. Those diagnosed with partial thickness thermal burns as per clinically • 4. Total surface area of the burn 10-20% as per Wallace rule of nine • 5. Willing to give written informed consent. • 6. Females of child-bearing potential with a negative urine pregnancy test on Day 1 • 7. […]
Safety was measured by pretreatment and post treatment biochemical investigations (Hematological variables) and physical examination. Subjects were thoroughly monitored for adverse effects.

[5] = subacute toxicity study in rabbits; type: in vivo
[6] = system: Pseudomonas aeroginosa MTCC 741; type: cell-based
Text: Whereas, 100% killing of Pseudomonas aeroginosa was observed on exposure to the test compound for 1 hr at pH 8.4 and an exposure of 4 hrs was required for 100% killing at pH 7.2.

[7] = system: Staphylococcus aureus MTCC 96; type: cell-based

## FAKKFAKKFAKFAKKFAKFAFAF [XYLENTRA®]
[1]
  systemic absorption (pharmacokinetic data): absence of systemic absorption
  volunteers who developed any adverse reaction: None
[2]
  mortality: No mortality
[2]; application of the peptide
  abnormalities in physical, physiological, biochemical and histo-pathological parameters: No abnormalities
[3]
  mild redness and itching: 2/24
  safety of cream: safe
  systemic absorption (pharmacokinetic data by HPLC): no systemic absorption
[4]; Phase III
  serious adverse events and deaths: No serious adverse events and no deaths
[4]; mostly skin related disorders
  nature of treatment emergent adverse events: mild
[5]
  mortality: No mortality
[5]; application of the peptide
  abnormalities in physical, physiological, biochemical and histo-pathological parameters: No abnormalities
[6]; MTCC 741, 1 h, pH 8.4
  killing of Pseudomonas aeroginosa: 100%
[6]; MTCC 741, 4 h, pH 7.2
  killing of Pseudomonas aeroginosa: 100%
[7]; MTCC 96, 1 h, 1 μM, pH 7.2
  killing of Staphylococcus aureus: 100%
[7]; MTCC 96, 1 h, 5 μM, pH 7.2
  killing of Staphylococcus aureus: 100%
[7]; MTCC 96, 4 h, pH 8.4
  killing of Staphylococcus aureus: 100%
